For test [1], the target named is Matrix protein 2 (Influenza A virus (A/Udorn/307/1972(H3N2)), UniProt P0DOF8, V27A).
The next test concerns Influenza A virus. The note with it: mdck.

In general, IC50 refers to the midpoint of a concentration-inhibition curve. A lower IC50 goes with greater potency. Consider `NC1CCCC2(CCCCC2)CC1` (stereo unspecified), for which the IC50 in test [1] worked out at 68.1 µM.
A word on the EC50: it is the concentration needed to bring the measured effect to its halfway point. Higher therefore signals weaker potency. Regarding `NC1CCC2(CC1)C1CC3CC(C1)CC2C3` (stereo unspecified), the midpoint of the response in the test with Influenza A virus, the EC50, lay at 1.8 µM.
The compound `CC(N)C1CCC2(CCCCC2)CC1` (stereo unspecified) registered a concentration for half-maximal inhibition (IC50) in test [1] of 25.2 µM.
On to `NCC1CCC2(CCCCC2)CC1`, for which half-maximal inhibition in test [1] (IC50) was put at 31.1 µM.
Same read-out and setting: the same measure for `NC1CCC2(CCCCCC2)CC1`: 28.1 µM.
For `NC1CSC2(SC1)C1CC3CC(C1)CC2C3` (stereo unspecified), the IC50 in test [1] was 0.4 µM. The compound further returned an EC50 with Influenza A virus of 1 µM.
The like results for `N=C(N)NC1CCC2(CC1)C1CC3CC(C1)CC2C3` (stereo unspecified) were, in that order, 0.5 µM and above 30 µM.
Take `C1CCC2(CC1)CCNCC2`: in test [1], the concentration for half-maximal inhibition (IC50) was above 200 µM.
The same measure, in the same setting: for `NC1CCCC2(CCCCCC2)CC1` (stereo unspecified) the value was 11.3 µM.

These data come from ChEMBL document CHEMBL5512617, “Tackling Influenza A virus by M2 ion channel blockers: Latest progress and limitations” (Eur J Med Chem, 2024).
